From patent publication US20100267743A1, “3-(PHENOXYPYRROLIDIN-3-YL-METHYL)HETEROARYL, 3-(PHENYLPYRROLIDIN-3-YLMETHOXY)HETEROARYL, AND 3-(HETEROARYLPYRROLIDIN-3-YLMETHOXY)HETEROARYL COMPOUNDS” (priority 2009, published 2010) come the findings set out here.

In experiment [1] the target is SERT (Homo sapiens, UniProt P31645). In words: hSERT radioligand binding assay (3H-citalopram). On the set-up: expressed in transfected cells; host or cells: HEK-293. Particulars: hSERT membranes (HEK-293), 1.0 nM 3H-citalopram; for Ki: read-out: SERT pKi (converted). A digest of the protocol: (§1)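 Membranes came from HEK-293 cells stably expressing hSERT (0.5 μg protein) or hNET (1 μg), with 3H-citalopram or 3H-nisoxetine respectively. Incubation was 60 min at 22° C in Tris buffer with 120 mM NaCl and 5 mM KCl, pH 7.4, followed by filtration and scintillation counting. pKi was derived by Cheng-Prusoff from IC50 and saturation-derived Kd.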

Experiment [2] addresses NET (Homo sapiens, UniProt P23975). In words: hNET radioligand binding assay (3H-nisoxetine). Also noted: expressed in transfected cells; host or cells: HEK-293. Particulars: hNET membranes (HEK-293), 1.0 nM 3H-nisoxetine; for Ki: read-out: NET pKi (converted). A digest of the protocol: as §1

Chain of SERT (P31645 whole entry): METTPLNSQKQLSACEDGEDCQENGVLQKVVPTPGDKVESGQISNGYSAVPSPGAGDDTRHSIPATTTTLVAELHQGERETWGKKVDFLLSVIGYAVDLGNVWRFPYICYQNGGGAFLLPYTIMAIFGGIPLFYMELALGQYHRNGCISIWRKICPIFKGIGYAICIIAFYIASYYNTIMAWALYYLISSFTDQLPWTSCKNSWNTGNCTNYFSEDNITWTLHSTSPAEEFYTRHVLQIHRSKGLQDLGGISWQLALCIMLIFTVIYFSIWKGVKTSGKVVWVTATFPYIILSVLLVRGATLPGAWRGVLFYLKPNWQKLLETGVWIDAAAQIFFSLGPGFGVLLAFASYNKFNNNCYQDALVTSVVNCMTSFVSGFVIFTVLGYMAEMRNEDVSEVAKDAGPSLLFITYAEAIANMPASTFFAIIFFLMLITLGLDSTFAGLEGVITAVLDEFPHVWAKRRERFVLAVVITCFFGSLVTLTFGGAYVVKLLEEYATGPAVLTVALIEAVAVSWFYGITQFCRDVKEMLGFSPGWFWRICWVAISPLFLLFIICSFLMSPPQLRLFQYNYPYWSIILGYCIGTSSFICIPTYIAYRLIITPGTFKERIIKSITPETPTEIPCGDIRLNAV
Chain of NET (P23975 whole entry): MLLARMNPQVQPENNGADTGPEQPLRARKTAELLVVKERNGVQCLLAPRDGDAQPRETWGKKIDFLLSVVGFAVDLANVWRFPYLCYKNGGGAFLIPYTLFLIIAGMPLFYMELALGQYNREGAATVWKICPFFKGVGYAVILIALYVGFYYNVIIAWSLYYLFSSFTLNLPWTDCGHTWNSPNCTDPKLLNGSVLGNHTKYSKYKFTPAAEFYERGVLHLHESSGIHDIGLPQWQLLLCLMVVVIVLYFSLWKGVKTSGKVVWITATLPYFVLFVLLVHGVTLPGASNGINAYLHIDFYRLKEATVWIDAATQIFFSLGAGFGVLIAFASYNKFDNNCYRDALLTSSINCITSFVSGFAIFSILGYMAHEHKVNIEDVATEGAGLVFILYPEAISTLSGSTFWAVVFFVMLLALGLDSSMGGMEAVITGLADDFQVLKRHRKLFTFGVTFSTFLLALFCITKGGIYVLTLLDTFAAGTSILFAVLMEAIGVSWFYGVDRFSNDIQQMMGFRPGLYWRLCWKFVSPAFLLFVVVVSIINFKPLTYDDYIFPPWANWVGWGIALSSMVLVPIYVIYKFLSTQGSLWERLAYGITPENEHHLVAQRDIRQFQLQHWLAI

In the case of `Clc1cncc(C(Oc2cc(Cl)c(Cl)cc2Cl)C2CCNC2)c1` [Example 2-1, 3-Chloro-5-[(R)-(S)-pyrrolidin-3-y1-(2,4,5-trichlorophenoxy)methyl]pyridine], the Ki was not above 100 nM in experiment [1] and not above 10000 nM in experiment [2].

`Fc1cc(F)c(Cl)c(O[C@H](c2cncc(Cl)c2)[C@H]2CCNC2)c1Cl` [Example 2-4, 3-Chloro-5-[(S)-(2,6-dichloro-3,5-difluorophenoxy)-(S)-pyrrolidin-3-yl-methyl]-pyridine]: the Ki in experiment [1] was not above 100 nM; in experiment [2], not above 10000 nM.

Turning to `Fc1ccc(F)c(O[C@H](c2cncc(Cl)c2)[C@H]2CCNC2)c1Cl` [Example 2-7, 3-Chloro-5-[(S)-(2-chloro-3,6-difluorophenoxy)-(S)-pyrrolidin-3-yl-methyl]-pyridine], the Ki in experiment [1] was not above 100 nM; in experiment [2], not above 10000 nM.

Consider `COc1ccccc1O[C@H](c1cncc(Cl)c1)[C@H]1CCNC1` [Example 2-13, 3-Chloro-5-[(S)-(2-methoxyphenoxy)-(S)-pyrrolidin-3-yl-methyl]pyridine], for which the Ki in experiment [1] and in experiment [2] was not above 10000 nM each time.

As to `Clc1cc(Cl)cc(O[C@H](c2cncc(Cl)c2)[C@H]2CCNC2)c1` [Example 2-16, 3-Chloro-5-[(S)-(3,5-dichlorophenoxy)-(S)-pyrrolidin-3-yl-methyl]pyridine], the Ki in experiment [1] and in experiment [2] was not above 100 nM each time.

For `Fc1cc(Cl)cc(F)c1OC(c1cncc(Cl)c1)C1CCNC1` [Example 2-25, 3-Chloro-5-[(R)-(4-chloro-2,6-difluorophenoxy)-(S)-pyrrolidin-3-yl-methy1]-pyridine], the Ki in experiment [1] and in experiment [2] was not above 100 nM in each case.

On to `Fc1cc(Cl)c(O[C@H](c2cncc(Cl)c2)[C@@H]2CCNC2)c(Cl)c1` [Example 2-26, 3-Chloro-5-[(R)-(2,6-dichloro-4-fluorophenoxy)-(S)-pyrrolidin-3-yl-methy1]-pyridine], for which the “SERT pKi” value in experiment [1] is “≧7.0”. Besides, the “NET pKi” value in experiment [2] is given as “≧5.0”.

With `Fc1cc(Cl)cc(Cl)c1OC(c1cncc(Cl)c1)C1CCNC1` [Example 2-27, 3-Chloro-5-[(R)-(2,4-dichloro-6-fluorophenoxy)-(S)-pyrrolidin-3-yl-methy1]-pyridine], the Ki in experiment [1] and in experiment [2] was not above 100 nM throughout.

As for `Cc1cc(Cl)c(O[C@H](c2cncc(Cl)c2)[C@@H]2CCNC2)c(Cl)c1` [Example 2-28, 3-Chloro-5-[(R)-(2,6-dichloro-4-methylphenoxy)-(S)-pyrrolidin-3-yl-methy1]-pyridine], the “SERT pKi” value in experiment [1] is recorded as “≧7.0”. Further, in experiment [2], the “NET pKi” value is listed as “≧7.0”.

On to `Cc1cc(Cl)cc(C)c1O[C@H](c1cncc(Cl)c1)[C@@H]1CCNC1` [Example 2-29, 3-Chloro-5-[(R)-(4-chloro-2,6-dimethylphenoxy)-(S)-pyrrolidin-3-yl-methy1]-pyridine], for which, in experiment [1], the “SERT pKi” value was “≧7.0”. For the same molecule, in experiment [2], the “NET pKi” value was “≧5.0”.

Take `Cc1cc(Cl)cc(Cl)c1OC(c1cncc(Cl)c1)C1CCNC1` [Example 2-30, 3-Chloro-5-[(R)-(2,4-dichloro-6-methylphenoxy)-(S)-pyrrolidin-3-yl-methy1]-pyridine]: the Ki in experiment [1] is not above 100 nM; in experiment [2], not above 10000 nM.

Take `Fc1cc(F)c(O[C@@H](c2cncc(Cl)c2)[C@H]2CCNC2)c(F)c1` [Example 2-33, 3-Chloro-5-[(R)-(S)-pyrrolidin-3-yl-(2,4,6-trifluorophenoxy)methyl]pyridine]: the Ki in experiment [1] and in experiment [2] was not above 100 nM each time.

In the case of `Fc1cncc([C@H](Oc2cc(Cl)c(Cl)cc2Cl)[C@H]2CCNC2)c1` [Example 2-34, 3-Fluoro-5-[(R)-(S)-pyrrolidin-3-yl-(2,4,5-trichlorophenoxy)-methyl]pyridine], the Ki in experiment [1] is not above 100 nM; in experiment [2] it was not above 10000 nM.

With `Fc1cncc([C@H](Oc2c(F)cc(F)cc2F)[C@H]2CCNC2)c1` [Example 2-35, 3-Fluoro-5-[(R)-(S)-pyrrolidin-3-yl-(2,4,6-trifluorophenoxy)-methyl]pyridine], the Ki in experiment [1] and in experiment [2] was not above 100 nM each time.

Consider `Fc1cncc([C@@H](Oc2c(Cl)c(F)cc(F)c2Cl)[C@H]2CCNC2)c1` [Example 2-42, 3-[(S)-(2,6-Dichloro-3,5-difluorophenoxy)-(S)-pyrrolidin-3-yl-methyl]-5-fluoropyridine], for which the Ki in experiment [1] is not above 100 nM; in experiment [2], not above 10000 nM.

In the case of `Cc1cc(Cl)cc(C)c1OC(c1cncc(F)c1)C1CCNC1` [Example 2-46, 3-[(R)-(4-Chloro-2,6-dimethylphenoxy)-(S)-pyrrolidin-3-yl-methy1]-5-fluoropyridine], the values for the Ki in experiment [1] and in experiment [2] were not above 100 nM and not above 10000 nM, respectively.

`Fc1cncc(C(Oc2ccc(Cl)cc2Cc2ccccc2)C2CCNC2)c1` [Example 2-47, 3-[(R)-(2-Benzy1-4-chlorophenoxy)-(S)-pyrrolidin-3-yl-methy1]-5-fluoropyridine]: the Ki in experiment [1] and in experiment [2] was not above 100 nM each time.

Take `Fc1cncc(C(Oc2c(F)ccc(F)c2Cl)C2CCNC2)c1` [Example 2-50, 3-[(S)-(2-Chloro-3,6-difluorophenoxy)-(S)-pyrrolidin-3-yl-methy1]-5-fluoropyridine]: the values for the Ki in experiment [1] and in experiment [2] were not above 100 nM and not above 10000 nM, respectively.

With `CCc1cc(F)cc(F)c1O[C@H](c1cncc(F)c1)[C@@H]1CCNC1` [Example 2-57, 3-[(R)-(2-Ethy1-4,6-difluorophenoxy)-(S)-pyrrolidin-3-yl-methyl]-5-fluoropyridine], in experiment [1], the “SERT pKi” value is “≧7.0”. In experiment [2], the “NET pKi” value is on record as “≧7.0”.

For `CCc1cc(F)ccc1O[C@H](c1cncc(F)c1)[C@@H]1CCNC1` [Example 2-58, 3-[(R)-(2-Ethy1-4-fluorophenoxy)-(S)-pyrrolidin-3-yl-methyl]-5-fluoropyridine], the “SERT pKi” value in experiment [1] is “≧7.0”. Also, the “NET pKi” value in experiment [2] was “≧7.0”.

In the case of `Cc1cc(Cl)ccc1O[C@H](c1cncc(F)c1)[C@H]1CCNC1` [Example 2-61, 3-[(S)-(4-Chloro-2-methylphenoxy)-(S)-pyrrolidin-3-yl-methyl]-5-fluoropyridine], the Ki in experiment [1] was not above 100 nM; in experiment [2] it was not above 10000 nM.

For the molecule `COc1ccccc1O[C@H](c1cncc(F)c1)[C@H]1CCNC1` [Example 2-63, 3-Fluoro-5-[(S)-(2-methoxyphenoxy)-(S)-pyrrolidin-3-yl-methyl]pyridine], the Ki in experiment [1] and in experiment [2] was not above 10000 nM throughout.

As for `Fc1cncc([C@@H](Oc2cc(Cl)cc(Cl)c2)[C@H]2CCNC2)c1` [Example 2-66, 3-[(S)-(3,5-Dichlorophenoxy)-(S)-pyrrolidin-3-yl-methyl]-5-fluoropyridine], the Ki in experiment [1] and in experiment [2] was not above 100 nM in each case.

For `Clc1ccc(Cl)c(O[C@@H](c2cccnc2)[C@H]2CCNC2)c1Cl` [Example 2-67, 3-[(R)-(S)-Pyrrolidin-3-yl-(2,3,6-trichlorophenoxy)methyl]pyridine], the Ki in experiment [1] and in experiment [2] was not above 100 nM in each case.

As for `Fc1cc(F)c(O[C@@H](c2cccnc2)[C@H]2CCNC2)c(F)c1` [Example 2-68, 3-[(R)-(S)-Pyrrolidin-3-yl-(2,4,6-trifluorophenoxy)methyl]pyridine], the Ki in experiment [1] and in experiment [2] was not above 10000 nM in each case.

Regarding `Fc1cc(F)c(O[C@H](c2cccnc2)[C@H]2CCNC2)c(F)c1` [Example 2-69, 3-[(S)-(S)-Pyrrolidin-3-yl-(2,4,6-trifluorophenoxy)methyl]pyridine], the Ki in experiment [1] and in experiment [2] was not above 100 nM in each case.

On to `Fc1ccc(O[C@H](c2cccnc2)[C@H]2CCNC2)c(F)c1` [Example 2-71, 3-[(S)-(2,4-Difluorophenoxy)-(S)-pyrrolidin-3-yl-methyl]pyridine], for which the Ki in experiment [1] and in experiment [2] was not above 100 nM in each case.

Consider `Clc1cccc(Cl)c1O[C@H](c1cccnc1)[C@H]1CCNC1` [Example 2-73, 3-[(S)-(2,6-Dichlorophenoxy)-(S)-pyrrolidin-3-yl-methyl]pyridine], for which the Ki in experiment [1] and in experiment [2] was not above 100 nM each time.

`Cc1ccc(Cl)c(OC(c2cccnc2)[C@H]2CCNC2)c1Cl` (stereo partly drawn) [Example 2-74, 3-[(S)-(2,6-Dichloro-3-methylphenoxy)-pyrrolidin-3-yl-methyl]pyridine]: the Ki in experiment [1] and in experiment [2] was not above 100 nM throughout.

For `COc1ccccc1OC(c1cccnc1)[C@H]1CCNC1` (stereo partly drawn) [Example 2-81, 3-[(S)-(2-Methoxyphenoxy)-pyrrolidin-3-yl-methyl]pyridine], the Ki was not above 10000 nM in experiment [1] and not above 100 nM in experiment [2].

On to `Fc1cc(F)c(O[C@@H](c2ccncc2)[C@H]2CCNC2)c(F)c1` [Example 3-1, 4-[(R)-(S)-Pyrrolidin-3-yl-(2,4,6-trifluorophenoxy)methyl]pyridine], for which the Ki in experiment [1] and in experiment [2] was not above 10000 nM throughout.

`Fc1cc(F)c(O[C@H](c2ccncc2)[C@H]2CCNC2)c(F)c1` [Example 3-2, 4-[(S)-(S)-Pyrrolidin-3-yl-(2,4,6-trifluorophenoxy)methyl]pyridine]: the Ki in experiment [1] and in experiment [2] was not above 100 nM in each case.

With `Fc1ccc(OC(c2ccncc2)[C@H]2CCNC2)c(F)c1` (stereo partly drawn) [Example 3-3, 4-[(S)-(2,4-Difluorophenoxy)-pyrrolidin-3-yl-methyl]pyridine], the Ki in experiment [1] and in experiment [2] was not above 10000 nM in each case.

For `Clc1cccc(Cl)c1O[C@H](c1ccncc1)[C@H]1CCNC1` [Example 3-5, 4-[(S)-(2,6-Dichlorophenoxy)-(S)-pyrrolidin-3-yl-methyl]pyridine], the Ki in experiment [1] and in experiment [2] was not above 100 nM throughout.
